Values quoted from earlier work, collected in patent publication US8063151B2, “Methods for manufacturing copolymers having 1-methyl-2-methoxyethyl moieties and use of same” (Abbott Laboratories, priority 2006, dated 2011).

Settings: comparison with ethanol

COCC(C)O (stereo not shown) [1-methoxy-2-propanol]
toxicity compared with other solvents: in a range more similar to ethanol
